# Data: patent US20230210732A1, “REDUCTIVE TEETH WHITENING UTILIZING SALTS OF DITHIONITE” (CAO Group, Inc., priority 2022, published 2023)
# Assay: whitening of stained extracted teeth, color scored against a classical VITA shade guide
# Details: for tooth whitening (color vs classical VITA shade guide): teeth left in solution overnight, all teeth
# From the text: To evaluate these solutions, a collection of extracted teeth was examined and selected for dark color stains ranging from light yellow to brown. These teeth were then categorized and scored for color by comparing to a classical VITA shade guide. Then half of the teeth were then placed in a fresh solution of 15% sodium dithionite in water with unadjusted pH. The second half were placed in the solution adjusted to above pH 10. All teeth became whiter after remaining in solution overnight, especially light yellow to yellow stained teeth.
smiles,measurement,setting,value
O=S([O-])S(=O)[O-].[Na+].[Na+] [sodium dithionite],tooth whitening of brown stained teeth,"15% sodium dithionite in water (unadjusted pH or above pH 10), overnight, brown teeth, less effect than light yellow to yellow teeth",whitened significantly
same,tooth whitening (color vs classical VITA shade guide),15% sodium dithionite solution adjusted to above pH 10,became whiter
same,tooth whitening (color vs classical VITA shade guide),"fresh solution of 15% sodium dithionite in water, unadjusted pH",became whiter
